How the values were obtained:
[1] = system: Sprague-Dawley rats; test: Acute depression model, forced swim test; assay type: in vivo, rat; conditions: 20 mg/kg vs vehicle
Protocol: Young, adult, male Sprague-Dawley rats were randomly assigned across the treatment groups and were administered vehicle (0.5% MC/0.02% SLS), the reference compound desipramine (20 mg/kg; a tricyclic antidepressant; Sigma, Lot #078K1326) dissolved in sterile water, or crystalline Form II of Compound (I) (0.1, 0.3, 1, 3, 10, and 30 mg/kg) suspended in 0.5% MC/0.02% SLS, twice on Day 1 (after habituation; ˜24 h prior to test, and prior to dark cycle) and once on Day 2 (30 min pre-test for desipramine and 45 min pre-test for Form II and vehicle).
Each Forced Swim chamber was constructed of clear acrylic (height, 40 cm; diameter, 20.3 cm). Rats were subjected to a pre-dose swim test of one 15-min session in cylinders containing water at 23° C.±1° C., followed approximately 24 h later by the experimental 5-min session. The water level was 16 cm deep during habituation and 30 cm deep during the test. Immobility, climbing, and swimming behaviors were recorded every 5 s for a total of 60 counts per subject. When an animal was unable to maintain a posture with its nose above water, it was immediately removed from the water and eliminated from the study. Blood was collected at the completion of swim test procedures and plasma was analyzed for Form II concentrations.

[2] = system: Sprague-Dawley rats; test: Rat forced swim test 24 hours after administration; assay type: in vivo; conditions: 10 mg/kg, i.p., 24 hours before test, p<0.05
Protocol: This study aimed to evaluate the duration of the antidepressant-like effects of Form II of Compound (I) using the forced swim test in male, Sprague-Dawley rats. Clinically effective antidepressant compounds reduce immobility time and increase swimming in rodents subjected to this test. Rats received Compound (I) (10 mg/kg, p.o.) or ketamine (10 mg/kg, i.p.) and 24 hours later were subjected to testing. […] The data represent mean±SEM.

[3] = system: systemic blood pressure and heart rate; test: Blood pressure profile in chronically instrumented (telemetered) rats; assay type: in vivo, rat
Protocol: A single oral gavage dose was administered (volume: 5 mL/kg). […] Following the completion of the Latin square, two additional dose concentrations were evaluated (0.6 and 10 mg/kg, n=3 per group).
All IV doses were administered in manually restrained rats via tail vena-puncture. It should be noted that vehicle controls were also administered.
A 24-hour recording was performed prior to dosing (vehicle alone) and after each oral dose.

[4] = Repeated once-daily oral dosing with food (Days 1-7) in healthy subjects, PK and PD; assay type: in vivo, human; conditions: oral doses up to 20 mg
Protocol: A randomized, double-blind, placebo-controlled, parallel-dose group in-patient study is conducted to investigate the pharmacodynamic (PD) effects of crystalline Form II of Compound (I) in healthy subjects.
The study is designed as a three-part, sequential study. The sequential nature of the study ensures that a range of doses are investigated first in a young, healthy population (Part 1) before proceeding to higher doses in the healthy population and the comparator populations (intermediate age and elderly) (Parts 2 and 3). For the purposes of this study, “young” refers to a subject who is 18 to 45 years of age, “intermediate age” refers to a subject who is 46 to 64 years of age, and “elderly” refers to a subject who is 65 years of age or older.
After a screening period of up to 21 days (Days −23 to −3), 16 healthy, young male and female subjects are randomly assigned to a dose group as shown in Table 9.
Each parallel dose group is balanced for gender (approximately equal number of males and females). The randomized subjects are domiciled from Day −1 through Day 8. On Day −1, the subjects receive placebo tablets in the fed state and undergo ambulatory blood pressure monitoring (ABPM) and safety assessments to establish time-matched baselines. On Days 1-7, the subjects receive the study drug in the fed state and undergo safety, pharmacokinetic (PK) and pharmacodynamics (PD) assessments. On Days 8-11, follow-up PK and safety assessments are performed.
Safety assessments include Clinician-Administered Dissociative States Scale (CADSS), Columbia-Suicide Severity Rating Scale (C-SSRS), concomitant medication, adverse event (AE) and vital sign assessments. In PK assessments, blood samples are taken and analyzed to determine PK parameters such as Cmax, Tmax, AUC0-24, and t1/2. PD assessments include ABPM, plasma brain-derived neurotrophic factor (BDNF) measurements, and Profile of Mood States (POMS) assessments.
After a screening period of up to 21 days (Days −23 to −3), 16 subjects (8 healthy, young male and female subjects, and 8 healthy, intermediate age male and female subjects) are randomly assigned to a dose group as shown in Table 10.
After a screening period of up to 21 days (Days −23 to −3), 16 subjects (8 healthy, young male and female subjects, and 8 healthy, elderly male and female subjects) are randomly assigned to a dose group as shown in Table 11.

[5] = patients with TRMDD; Ibrahim et al. 2012; cited from earlier work
[6] = Polymorph stability (slurry and heating, XRPD); assay type: physicochemical; conditions: heating to 115° C.
Protocol: Crystalline Form II of Compound (I) was characterized using X-ray powder diffraction (XRPD) (FIG. 1A). The XRPD pattern corresponds to an anhydrous form denoted as Form II, which is highly crystalline. In addition to Form II, Compound (I) can exist as another anhydrous polymorph, denoted as Form I. The XRPD patterns of these phases are shown in FIG. 1B. A slurry experiment was performed at room temperature by adding approximately equal proportions of the two anhydrous phases to methyl-tert-butyl ether.

[7] = 1 mg/kg IV bolus, blocker alone

**Q.** For `CNCCCN1c2ccccc2CCc2ccccc21` [Desipramine, reference compound], which swimming behavior [1] is on record?
**A.** no change

**Q.** What about the immobility ([1]; P<0.001) of the same compound?
**A.** significantly decreased

**Q.** What about the climbing behavior ([1]; P<0.01) of the same compound?
**A.** significantly increased

**Q.** Which results are given for `CNC1(c2ccccc2Cl)CCCCC1=O` (stereo not drawn) [ketamine, reference compound]?
**A.** immobility [2]: reduced immobility; swim time [2]: increased swim time significantly

**Q.** With `Cc1ccc(COC(=O)N2CC[C@H](CNc3ncccn3)[C@H](F)C2)cc1` [Compound (I), 4-methylbenzyl (3S, 4R)-3-fluoro-4-[(pyrimidin-2-ylamino)methyl] piperidine-1-carboxylate] as the compound, how does the heart rate ([3]; 0.3 and 0.6 mg/kg oral) read?
**A.** modestly increased heart rate

**Q.** What about the heart rate ([3]; between 1 and 10 mg/kg oral) of the same compound?
**A.** increased HR dose proportionally

**Q.** What about the “magnitude of change in hemodynamics compared with MK-801 (0.2 mg/kg IV)” value ([3]; oral 0.3-10 mg/kg) of the same compound?
**A.** significantly less than that of MK-801

**Q.** And the arterial blood pressure ([3]; oral, dose-dependent between 0.3-1 mg/kg, plateaued at 1-10 mg/kg)?
**A.** increased arterial blood pressure transiently

**Q.** What about the “heart rates in human studies” value [4] of the same compound?
**A.** have not been observed to increase to any significant degree

**Q.** And the “primary hemodynamic observation in human studies” value [4]?
**A.** transient increase in systolic and diastolic blood pressure

**Q.** What about the “HAM-D17 and Beck Depression Inventory (BDI)” value [5] of the same compound?
**A.** showed antidepressant effects

**Q.** Which “phase change on heating (XRPD of recovered solids)” value [6] does the source give for `Cc1ccc(COC(=O)N2CC[C@H](CNc3ncccn3)[C@H](F)C2)cc1` [Form I, 4-methylbenzyl (3S, 4R)-3-fluoro-4-[(pyrimidin-2-ylamino)methyl] piperidine-1-carboxylate] here?
**A.** phase conversion to Form II

**Q.** For `CC(C)NCC(O)COc1ccc(CC(N)=O)cc1` (stereo not drawn) [atenolol, reference compound], which HR change [3, 7] is on record?
**A.** −87±11 bpm

**Q.** What about the MAP change [3, 7] of the same compound?
**A.** −3.3±3.1 mmHg

From US12410153B2, “Compounds, compositions and methods” (Avalo Therapeutics, Inc., priority 2014, dated 2025)
